The values that follow come from patent US20250084074A1, “SUBSTITUTED HETEROCYCLES AS HSET INHIBITORS” (MERCK PATENT GMBH, priority 2022, published 2025).

Counter-ions that a name gives are not always drawn.

In general, IC50 refers to the concentration that inhibits the measured activity by half.

HSET full length protein, sequence (Q9BW19 whole entry): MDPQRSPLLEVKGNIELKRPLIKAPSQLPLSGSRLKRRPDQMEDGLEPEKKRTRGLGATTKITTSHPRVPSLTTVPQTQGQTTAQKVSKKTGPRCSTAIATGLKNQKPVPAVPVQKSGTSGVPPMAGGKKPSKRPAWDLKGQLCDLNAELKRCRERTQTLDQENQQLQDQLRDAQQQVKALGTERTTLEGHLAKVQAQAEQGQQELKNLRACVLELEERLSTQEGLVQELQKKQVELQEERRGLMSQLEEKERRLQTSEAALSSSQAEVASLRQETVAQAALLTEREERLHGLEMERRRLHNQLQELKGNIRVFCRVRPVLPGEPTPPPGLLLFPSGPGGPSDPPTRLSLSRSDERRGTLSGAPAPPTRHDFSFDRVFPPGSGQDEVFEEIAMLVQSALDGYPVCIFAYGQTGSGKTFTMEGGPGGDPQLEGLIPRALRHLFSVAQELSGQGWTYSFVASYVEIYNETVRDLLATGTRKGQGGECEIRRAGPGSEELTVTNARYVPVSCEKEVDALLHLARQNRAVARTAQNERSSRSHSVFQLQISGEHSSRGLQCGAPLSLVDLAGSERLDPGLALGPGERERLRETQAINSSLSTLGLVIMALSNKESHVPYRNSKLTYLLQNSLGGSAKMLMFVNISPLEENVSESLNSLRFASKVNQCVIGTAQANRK

In the assay the target is HSET full length protein (Homo sapiens (Human), UniProt Q9BW19). Kind of assay: HSET ADP-Glo Assay S - 3 μM ATP. Conditions: 5 nM HSET, 70 μg/mL microtubule, 80 min at rt, read-out: COMBINED HSET ADP GLO IC50. In kind it is biochemical. Put shortly:
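Full-length human HSET (5 nM) with paclitaxel-stabilised bovine brain microtubules (70 μg/mL) in HEPES pH 6.8 buffer was preincubated 10 min with compound. ATP at 3 μM started the reaction, which ran 80 min at rt. ADP formed was measured by ADP-Glo luminescence.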
For the molecule `CCCOC(=O)c1sc(NC(=O)CC2(NC(=O)c3cc(Cl)cc(-c4noc(C)n4)c3)CCN(C)CC2)nc1C` [Example 144, Propyl-2-(2-(4-(3-chloro-5-(5-methyl-1,2,4-oxadiazol-3-yl)benzamido)-1-methylpiperidin-4-yl)acetamido)-4-methylthiazole-5-carboxylate], the IC50 was determined as 9200 nM.

In the case of `CCOC(=O)c1sc(NC(=O)C(C)CNC(=O)c2cccc(-c3noc(C)n3)c2)nc1C` (stereo not drawn) [Example 145, Ethyl-4-methyl-2-(2-methyl-3-(3-(5-methyl-1,2,4-oxadiazol-3-yl)benzamido)propanamido)thiazole-5-carboxylate], the IC50 worked out at 5480 nM.

Turning to `CCOC(=O)c1sc(NC(=O)CC(NC(=O)c2cccc(-c3noc(C)n3)c2)C2CCNCC2)nc1C` (stereo not drawn) [Example 146, 4-(3-((5-(ethoxycarbonyl)-4-methylthiazol-2-yl)amino)-1-(3-(5-methyl-1,2,4-oxadiazol-3-yl)benzamido)-3-oxopropyl)piperidin-1-ium formate], the half-maximal inhibitory concentration (IC50) amounted to 260 nM.

Consider `CCOC(=O)c1sc(NC(=O)CC(NC(=O)c2cccc(-c3noc(C)n3)c2)C2CCN(C)CC2)nc1C` (stereo not drawn) [Example 147, 4-(3-((5-(ethoxycarbonyl)-4-methylthiazol-2-yl)amino)-1-(3-(5-methyl-1,2,4-oxadiazol-3-yl)benzamido)-3-oxopropyl)-1-methylpiperidin-1-ium formate], for which the half-inhibitory concentration (IC50) was 291 nM.

As for `CCOC(=O)c1sc(NC(=O)C[C@H](CN)NC(=O)c2cccc(-c3noc(C)n3)c2)nc1C` [Example 148, Ethyl-2-[[(3R)-4-amino-3-[[3-(5-methyl-1,2,4-oxadiazol-3-yl)benzoyl]amino]butanoyl]amino]-4-methyl-thiazole-5-carboxylate], the IC50 was 133 nM.

In the case of `CCOC(=O)c1sc(NC(=O)[C@H]2CNC[C@@H]2NC(=O)c2cccc(-c3noc(C)n3)c2)nc1C` [Example 149, Ethyl-4-methyl-2-[[(3S,4R)-4-[[3-(5-methyl-1,2,4-oxadiazol-3-yl)benzoyl]amino]pyrrolidine-3-carbonyl]amino]thiazole-5-carboxylate; formic acid], the IC50 worked out at 2800 nM.

Regarding `CCOC(=O)c1sc(NC(=O)C[C@H](CCCN)NC(=O)c2cccc(-c3noc(C)n3)c2)nc1C` [Example 150, ethyl (S)-2-(6-amino-3-(3-(5-methyl-1,2,4-oxadiazol-3-yl)benzamido)hexanamido)-4-methylthiazole-5-carboxylate], the IC50 amounted to 57 nM.

For the molecule `CCCOC(=O)c1sc(NC(=O)C[C@H](CCCN)NC(=O)c2cccc(-c3noc(C)n3)c2)nc1C` [Example 151, Popyl-(S)-2-(6-amino-3-(3-(5-methyl-1,2,4-oxadiazol-3-yl)benzamido)hexanamido)-4-methylthiazole-5-carboxylate], the IC50 was determined as 13 nM.

Turning to `CCCOC(=O)c1sc(NC(=O)C[C@H](CCCNC)NC(=O)c2cccc(-c3noc(C)n3)c2)nc1C` [Example 152, Propyl 4-methyl-2-[[(3S)-6-(methylamino)-3-[[3-(5-methyl-1,2,4-oxadiazol-3-yl)benzoyl]amino]hexanoyl]amino]thiazole-5-carboxylate], the IC50 was found to be 19 nM.

`CCCOC(=O)c1sc(NC(=O)C[C@@H](CCCNC)NC(=O)c2cccc(-c3noc(C)n3)c2)nc1C` [Example 153, Propyl-(R)-4-methyl-2-(3-(3-(5-methyl-1,2,4-oxadiazol-3-yl)benzamido)-6-(methylamino)hexanamido)thiazole-5-carboxylate]: the IC50 is 285 nM.

`CNCCC[C@@H](CC(=O)Nc1nc(C)c(C(=O)OC(C)(C)C)s1)NC(=O)c1cccc(-c2noc(C)n2)c1` [Example 154, Tert-butyl 4-methyl-2-[[(3S)-6-(methylamino)-3-[[3-(5-methyl-1,2,4-oxadiazol-3-yl)benzoyl]amino]hexanoyl]amino]thiazole-5-carboxylate]: the concentration for half-maximal inhibition (IC50) is 6 nM.

Turning to `CNCCC[C@@H](CC(=O)Nc1nc(C)c(C(=O)OC2CCCC2)s1)NC(=O)c1cccc(-c2noc(C)n2)c1` [Example 155, Cyclopentyl (S)-4-methyl-2-(3-(3-(5-methyl-1,2,4-oxadiazol-3-yl)benzamido)-6-(methylamino)hexanamido)thiazole-5-carboxylate], the 50% inhibitory concentration (IC50) is 11 nM.

Turning to `CNCCC[C@@H](CC(=O)Nc1nc(C)c(C(=O)OC(C)C)s1)NC(=O)c1cccc(-c2noc(C)n2)c1` [Example 156, Isopropyl (S)-4-methyl-2-(3-(3-(5-methyl-1,2,4-oxadiazol-3-yl)benzamido)-6-(methylamino)hexanamido)thiazole-5-carboxylate], the IC50 was 53 nM.

`CNCCC[C@@H](CC(=O)Nc1nc(C)c(C(C)(C)C)s1)NC(=O)c1cc(Cl)cc(-c2noc(C)n2)c1` [Example 157, (S)-N-(1-((5-(tert-butyl)-4-methylthiazol-2-yl)amino)-6-(methylamino)-1-oxohexan-3-yl)-3-chloro-5-(5-methyl-1,2,4-oxadiazol-3-yl)benzamide]: the IC50 turned out to be 373 nM.

As to `CCCOC(=O)c1sc(NC(=O)C[C@H](CCCN(C)C)NC(=O)c2cccc(-c3noc(C)n3)c2)nc1C` [Example 158, Propyl (S)-2-(6-(dimethylamino)-3-(3-(5-methyl-1,2,4-oxadiazol-3-yl)benzamido)hexanamido)-4-methylthiazole-5-carboxylate], the IC50 was 11 nM.

In the case of `CCCOC(=O)c1sc(NC(=O)C[C@H](CCCN2CCOCC2)NC(=O)c2cccc(-c3noc(C)n3)c2)nc1C` [Example 159, Propyl (S)-4-methyl-2-(3-(3-(5-methyl-1,2,4-oxadiazol-3-yl)benzamido)-6-morpholinohexanamido)thiazole-5-carboxylate], the IC50 turned out to be 21 nM.

For the molecule `CCCOC(=O)c1sc(NC(=O)C[C@H](CCN(C)C)NC(=O)c2cccc(-c3noc(C)n3)c2)nc1C` [Example 162, Propyl (S)-2-(5-(dimethylamino)-3-(3-(5-methyl-1,2,4-oxadiazol-3-yl)benzamido)pentanamido)-4-methylthiazole-5-carboxylate], the IC50 was 558 nM.

Consider `CCCOC(=O)c1sc(NC(=O)C[C@H](CCCN)Nc2nccc3ccc(-c4noc(C)n4)cc23)nc1C` [Example 163, Propyl (S)-2-(6-amino-3-((7-(5-methyl-1,2,4-oxadiazol-3-yl)isoquinolin-1-yl)amino)hexanamido)-4-methylthiazole-5-carboxylate], for which the IC50 is 13 nM.

Regarding `Cc1nc(-c2ccc3ccnc(N[C@@H](CCCN)CC(=O)Nc4nc(C)c(C(C)(C)C)s4)c3c2)no1` [Example 164, (S)-6-amino-N-(5-(tert-butyl)-4-methylthiazol-2-yl)-3-((7-(5-methyl-1,2,4-oxadiazol-3-yl)isoquinolin-1-yl)amino)hexanamide formate], the IC50 is 116 nM.

For the molecule `CNCCC[C@@H](CC(=O)Nc1nc(C)c(C(=O)OC2CCCC2)s1)Nc1nccc2ccc(-c3noc(C)n3)cc12` [Example 165, Cyclopentyl (S)-4-methyl-2-(3-((7-(5-methyl-1,2,4-oxadiazol-3-yl)isoquinolin-1-yl)amino)-6-(methylamino)hexanamido)thiazole-5-carboxylate], the IC50 is 23 nM.

In the case of `CNCCC[C@@H](CC(=O)Nc1nc(C)c(C(=O)OC(CF)CF)s1)Nc1nccc2ccc(-c3noc(C)n3)cc12` [Example 166, 1,3-Difluoropropan-2-yl (S)-4-methyl-2-(3-((7-(5-methyl-1,2,4-oxadiazol-3-yl)isoquinolin-1-yl)amino)-6-(methylamino)hexanamido)thiazole-5-carboxylate], the half-maximal inhibitory concentration (IC50) is 11 nM.
